Values after ≈ are worked out from the molar mass of the structure shown.
Key:
Assay in all cases: ≥ marks a high value that may be exact or a test limit, other limits are often not marked, values filed in µg/mL are converted to µM
[1] = test system: Staphylococcus aureus T7/20
[2] = test system: Enterobacter cloacae HNTCC 53001
[3] = test system: Pseudomonas aeruginosa ATCC 27853
[4] = test system: Escherichia coli ATCC 25922
[5] = test system: Enterococcus faecalis ATCC 29212
[6] = test system: Klebsiella pneumoniae KK3 9904
[7] = test system: Staphylococcus aureus NCTC 8325
[8] = test system: Candida albicans ATCC 90028
[9] = test system: Staphylococcus epidermidis RP62A
[10] = test system: Escherichia coli CIB 84492
[11] = test system: Staphylococcus aureus ATCC 25923
[12] = test system: Staphylococcus aureus CIB 85462
[13] = test system: Pseudomonas aeruginosa CMCCB 10104
[14] = test system: Candida albicans ATCC 2002
[15] = test system: Shigella flexneri ATCC 203
[16] = test system: Micrococcus luteus ATCC 9341
[17] = test system: Staphylococcus aureus ATCC 6538
[18] = test system: Escherichia coli ATCC 2592
[19] = test system: Candida albicans ATCC 36232
[20] = test system: Corynebacterium diphtheriae ATCC 8024
Staphylococcus aureus = test system: Staphylococcus aureus
[21] = test system: Bacillus subtilis ATCC 6633
[22] = test system: Staphylococcus epidermidis ATCC 12228
[23] = test system: Pseudomonas aeruginosa ATCC 9027

| SMILES | MIC [1] | MIC [2] | MIC [3] | MIC [4] | MIC [5] | MIC [6] | MIC [7] | MIC [8] | MIC [9] | MIC [15] | MIC [16] | MIC [17] | MIC [18] | MIC [19] | MIC [20] | MIC (Staphylococcus aureus) | MIC [21] | MIC [22] | MIC [23] | other results |
| --- | --- | --- | --- | --- | --- | --- | --- | --- | --- | --- | --- | --- | --- | --- | --- | --- | --- | --- | --- | --- |
| CSCC[C@H](NC(=O)[C@@H](NC(=O)[C@@H](NC(=O)[C@H](CC(C)C)NC(=O)[C@@H]1CCCN1C(=O)[C@H](CC(C)C)NC(=O)[C@@H](N)Cc1ccccc1)C(C)C)[C@@H](C)O)C(=O)N[C@@H](CC(C)C)C(=O)N[C@@H](CC(C)C)C(=O)NCC(=O)N[C@@H](CCCCN)C(=O)N[C@@H](CC(C)C)C(=O)N[C@@H](Cc1ccccc1)C(N)=O [FLPLVTMLLGKLF] | 10 µM (≈ 14.9 µg/mL) | ≥ 40 µM | 160 µM (≈ 239 µg/mL) | > 160 µM | 40 µM (≈ 59.6 µg/mL) | ≥ 80 µM | 5 µM (≈ 7.45 µg/mL) | ≥ 160 µM | 10 µM (≈ 14.9 µg/mL) | – | – | – | – | – | – | – | – | – | – | – |
| CC[C@H](C)[C@H](NC(=O)[C@H](CO)NC(=O)[C@H](CC(C)C)NC(=O)[C@@H](N)Cc1ccccc1)C(=O)N[C@H](C(=O)N[C@@H](C)C(=O)N[C@@H](CCCCN)C(=O)N[C@H](C(=O)N[C@@H](CC(C)C)C(=O)NCC(=O)N[C@@H](CO)C(=O)N[C@@H](CC(C)C)C(=O)N[C@@H](Cc1ccccc1)C(N)=O)C(C)C)[C@@H](C)CC [FLSIIAKVLGSLF] | 10 µM (≈ 14.1 µg/mL) | ≥ 160 µM | > 160 µM | > 160 µM | 20 µM (≈ 28.1 µg/mL) | ≥ 160 µM | 5 µM (≈ 7.03 µg/mL) | ≥ 160 µM | 5 µM (≈ 7.03 µg/mL) | – | – | – | – | – | – | – | – | – | – | – |
| CC(C)C[C@H](NC(=O)[C@H](CS)NC(=O)[C@H](Cc1cnc[nH]1)NC(=O)[C@H](C)NC(=O)[C@H](C)NC(=O)[C@H](CS)NC(=O)[C@H](C)NC(=O)[C@H](C)NC(=O)[C@H](CC(=O)O)NC(=O)[C@@H](N)CC(N)=O)C(=O)N[C@@H](Cc1ccccc1)C(=O)N[C@@H](CCCN=C(N)N)C(=O)NCC(=O)N[C@@H](CCCN=C(N)N)C(=O)N[C@@H](CO)C(=O)NCC(=O)NCC(N)=O [NDAACAAHCLFRGRSGG] | – | – | – | – | – | – | – | – | – | ≥ 58.6 µM | ≥ 58.6 µM | > 58.6 µM | ≥ 58.6 µM | ≥ 58.6 µM | ≥ 58.6 µM | > 58.6 µM | ≥ 58.6 µM | > 58.6 µM | > 58.6 µM | – |

Second part, led by results:

| MIC [1] | MIC [2] | MIC [3] | MIC [4] | MIC [5] | MIC [6] | MIC [7] | MIC [8] | MIC [9] | MIC [15] | MIC [16] | MIC [17] | MIC [18] | MIC [19] | MIC [20] | MIC (Staphylococcus aureus) | MIC [21] | MIC [22] | MIC [23] | SMILES | other results |
| --- | --- | --- | --- | --- | --- | --- | --- | --- | --- | --- | --- | --- | --- | --- | --- | --- | --- | --- | --- | --- |
| – | – | – | 2.67 µM (≈ 10.2 µg/mL) | – | – | ≥ 50 µM | ≥ 100 µM | – | – | – | – | – | – | – | – | – | – | – | CC[C@H](C)[C@H](NC(=O)[C@H](CC(C)C)NC(=O)[C@H](CCCCN)NC(=O)[C@H](C)NC(=O)[C@H](C)NC(=O)CNC(=O)[C@H](CCCCN)NC(=O)[C@@H](NC(=O)[C@H](CC(C)C)NC(=O)[C@@H](NC(=O)[C@H](Cc1ccccc1)NC(=O)[C@H](CC(C)C)NC(=O)CN)[C@@H](C)O)[C@@H](C)CC)C(=O)NCC(=O)N[C@@H](CCCCN)C(=O)N[C@H](C(=O)N[C@H](C(=O)N[C@@H](C)C(=O)N[C@@H](CCCCN)C(=O)N[C@@H](CCC(=O)O)C(=O)N[C@@H](C)C(=O)NCC(=O)N[C@@H](CCCCN)C(=O)N[C@H](C(=O)NCC(=O)N[C@@H](CC(C)C)C(=O)N[C@@H](CCC(=O)O)C(=O)N[C@@H](CC(C)C)C(=O)N[C@@H](CCSC)C(=O)N[C@@H](C)C(=O)N[C@H]1CSSC[C@@H](C(=O)O)NC(=O)[C@H](CCC(N)=O)NC(=O)[C@H](CC(N)=O)NC(=O)[C@H]([C@@H](C)O)NC(=O)[C@H]([C@@H](C)CC)NC(=O)[C@H](CCCCN)NC1=O)[C@@H](C)O)C(C)C)[C@@H](C)O [GLFTLIKGAAKLIGKTVAKEAGKTGLELMACKITNQC] | MIC [10]: ≥ 33.5 µM; MIC [11]: 1.33 µM (≈ 5.1 µg/mL); MIC [12]: 8.37 µM (≈ 32 µg/mL); MIC [13]: 2.67 µM (≈ 10.2 µg/mL); MIC [14]: 1.33 µM (≈ 5.1 µg/mL) |
| – | – | – | – | – | – | – | – | – | ≥ 87.4 µM | ≥ 87.4 µM | > 87.4 µM | ≥ 87.4 µM | ≥ 87.4 µM | ≥ 87.4 µM | > 87.4 µM | ≥ 87.4 µM | > 87.4 µM | > 87.4 µM | CC(C)[C@H](NC(=O)[C@H](CS)NC(=O)[C@@H](NC(=O)[C@H](CCCN=C(N)N)NC(=O)[C@H](CCCCN)NC(=O)CNC(=O)[C@H](CC(N)=O)NC(=O)[C@H](CS)NC(=O)[C@@H](N)Cc1ccc(O)cc1)C(C)C)C(=O)N[C@@H](CS)C(N)=O [YCNGKRVCVC] | – |

Reference: DBAASP
